The NIST ThermoML archive (doi:10.1021/je0602723)
± gives the expanded uncertainty stated by the source.

Experiment: activity coefficient (dimensionless); of the first substance listed, at infinite dilution; xn = mol fraction of the nth substance listed
Settings: Liquid, Chromatography, x1 = 0

C1COCCO1 [1,4-dioxane] + CCOS(=O)(=O)[O-].CCn1cc[n+](C)c1
activity coefficient (312.4 K): 2.1 ± 0.14 | activity coefficient (333.4 K): 2.08 ± 0.14 | activity coefficient (354.2 K): 2.06 ± 0.14

O=C1CCCCCN1 [1-aza-2-cycloheptanone] + CCOS(=O)(=O)[O-].CCn1cc[n+](C)c1
activity coefficient (412.3 K): 5.1 ± 0.35 | activity coefficient (417.1 K): 6.1 ± 0.42 | activity coefficient (427.1 K): 4.9 ± 0.33

CC(C)CO [2-methyl-1-propanol] + CCOS(=O)(=O)[O-].CCn1cc[n+](C)c1
activity coefficient (322.7 K): 1.65 ± 0.11 | activity coefficient (333.4 K): 1.51 ± 0.1 | activity coefficient (343.9 K): 1.43 ± 0.09 | activity coefficient (357.2 K): 1.24 ± 0.08 | activity coefficient (386 K): 1.17 ± 0.07

CCC(C)(C)O [2-methylbutan-2-ol] + CCOS(=O)(=O)[O-].CCn1cc[n+](C)c1
activity coefficient (302 K): 2.51 ± 0.17 | activity coefficient (312.4 K): 2.44 ± 0.17 | activity coefficient (333.4 K): 2.21 ± 0.15 | activity coefficient (343.9 K): 2.14 ± 0.15 | activity coefficient (354.4 K): 2.07 ± 0.14

CC(C)(C)O [2-methylpropan-2-ol] + CCOS(=O)(=O)[O-].CCn1cc[n+](C)c1
activity coefficient (302 K): 2.02 ± 0.14 | activity coefficient (312.4 K): 1.86 ± 0.13 | activity coefficient (322.9 K): 1.74 ± 0.12 | activity coefficient (333.4 K): 1.64 ± 0.11 | activity coefficient (343.9 K): 1.57 ± 0.1 | activity coefficient (354.4 K): 1.49 ± 0.1

CC(C)=O [acetone] + CCOS(=O)(=O)[O-].CCn1cc[n+](C)c1
activity coefficient (323.1 K): 1.64 ± 0.11 | activity coefficient (333.6 K): 1.63 ± 0.11 | activity coefficient (343.9 K): 1.61 ± 0.11 | activity coefficient (365 K): 1.56 ± 0.1 | activity coefficient (375.4 K): 1.54 ± 0.1 | activity coefficient (386 K): 1.5 ± 0.1

CC#N [acetonitrile] + CCOS(=O)(=O)[O-].CCn1cc[n+](C)c1
activity coefficient (312.2 K): 0.81 ± 0.05 | activity coefficient (333.4 K): 0.8 ± 0.05 | activity coefficient (343.9 K): 0.78 ± 0.05 | activity coefficient (354.3 K): 0.77 ± 0.05

c1ccccc1 [benzene] + CCOS(=O)(=O)[O-].CCn1cc[n+](C)c1
activity coefficient (301.8 K): 2.98 ± 0.2 | activity coefficient (312.3 K): 2.94 ± 0.2 | activity coefficient (323 K): 2.88 ± 0.2 | activity coefficient (333.5 K): 2.79 ± 0.19 | activity coefficient (343.9 K): 2.69 ± 0.18 | activity coefficient (354.4 K): 2.59 ± 0.18 | activity coefficient (364.7 K): 2.5 ± 0.17

CCCCO [butan-1-ol] + CCOS(=O)(=O)[O-].CCn1cc[n+](C)c1
activity coefficient (323 K): 1.68 ± 0.11 | activity coefficient (333.4 K): 1.59 ± 0.11 | activity coefficient (343.8 K): 1.5 ± 0.1 | activity coefficient (354.2 K): 1.42 ± 0.09 | activity coefficient (365 K): 1.29 ± 0.08

CCC(C)O (stereo unspecified) [butan-2-ol] + CCOS(=O)(=O)[O-].CCn1cc[n+](C)c1
activity coefficient (312.5 K): 1.93 ± 0.13 | activity coefficient (333.4 K): 1.65 ± 0.11 | activity coefficient (344 K): 1.56 ± 0.1 | activity coefficient (354.5 K): 1.45 ± 0.1 | activity coefficient (364.9 K): 1.42 ± 0.09

CCCC=O [butanal] + CCOS(=O)(=O)[O-].CCn1cc[n+](C)c1
activity coefficient (322.8 K): 3.47 ± 0.24 | activity coefficient (333.4 K): 3.39 ± 0.23 | activity coefficient (344 K): 3.35 ± 0.23 | activity coefficient (354.5 K): 3.29 ± 0.22 | activity coefficient (364.9 K): 3.23 ± 0.22 | activity coefficient (375.3 K): 3.2 ± 0.22 | activity coefficient (385.9 K): 3.14 ± 0.21

CCCCc1ccccc1 [butylbenzene] + CCOS(=O)(=O)[O-].CCn1cc[n+](C)c1
activity coefficient (343.7 K): 28.4 ± 1.9 | activity coefficient (354.3 K): 26.3 ± 1.8 | activity coefficient (364.8 K): 24.7 ± 1.7 | activity coefficient (375.1 K): 23.2 ± 1.6 | activity coefficient (385.6 K): 21.6 ± 1.5 | activity coefficient (396.1 K): 20.1 ± 1.4

ON=C1CCCCC1 [cyclohexanone oxime] + CCOS(=O)(=O)[O-].CCn1cc[n+](C)c1
activity coefficient (417.2 K): 0.57 ± 0.04 | activity coefficient (427.5 K): 0.41 ± 0.03

CCCCCCCCCC [decane] + CCOS(=O)(=O)[O-].CCn1cc[n+](C)c1
activity coefficient (301.8 K): 504 ± 35 | activity coefficient (312.4 K): 445 ± 31 | activity coefficient (322.9 K): 389 ± 27 | activity coefficient (333.5 K): 331 ± 23

CCO [ethanol] + CCOS(=O)(=O)[O-].CCn1cc[n+](C)c1
activity coefficient (302.4 K): 0.86 ± 0.06 | activity coefficient (322.8 K): 0.79 ± 0.05 | activity coefficient (333.5 K): 0.73 ± 0.05 | activity coefficient (343.9 K): 0.69 ± 0.05 | activity coefficient (354.3 K): 0.67 ± 0.05

CCc1ccccc1 [ethylbenzene] + CCOS(=O)(=O)[O-].CCn1cc[n+](C)c1
activity coefficient (354.3 K): 9.16 ± 0.62 | activity coefficient (364.7 K): 8.71 ± 0.59 | activity coefficient (375.1 K): 8.21 ± 0.56 | activity coefficient (385.7 K): 7.77 ± 0.53

CCCCCCC=O [heptanal] + CCOS(=O)(=O)[O-].CCn1cc[n+](C)c1
activity coefficient (303.3 K): 16.1 ± 1.1 | activity coefficient (312.2 K): 15 ± 1 | activity coefficient (322.8 K): 14 ± 0.96 | activity coefficient (333.3 K): 13.1 ± 0.89 | activity coefficient (354.2 K): 11.4 ± 0.78

CCCCCCO [hexan-1-ol] + CCOS(=O)(=O)[O-].CCn1cc[n+](C)c1
activity coefficient (343.8 K): 3.52 ± 0.24 | activity coefficient (354.2 K): 3.27 ± 0.22 | activity coefficient (364.9 K): 3.06 ± 0.21 | activity coefficient (375.2 K): 2.81 ± 0.19

CCCCCC=O [hexanal] + CCOS(=O)(=O)[O-].CCn1cc[n+](C)c1
activity coefficient (312.2 K): 11.4 ± 0.78 | activity coefficient (322.9 K): 11.3 ± 0.77 | activity coefficient (333.4 K): 11.1 ± 0.76

CO [methanol] + CCOS(=O)(=O)[O-].CCn1cc[n+](C)c1
activity coefficient (312.4 K): 0.41 ± 0.03 | activity coefficient (323 K): 0.4 ± 0.03 | activity coefficient (333.4 K): 0.39 ± 0.03 | activity coefficient (343.8 K): 0.38 ± 0.03 | activity coefficient (354.2 K): 0.36 ± 0.03

CCCC(=O)OC [methyl butanoate] + CCOS(=O)(=O)[O-].CCn1cc[n+](C)c1
activity coefficient (344 K): 7.29 ± 0.5 | activity coefficient (354.5 K): 6.88 ± 0.47 | activity coefficient (364.9 K): 6.58 ± 0.45 | activity coefficient (375.4 K): 6.26 ± 0.43 | activity coefficient (385.9 K): 5.9 ± 0.4

CCCCCCC(=O)OC [methyl heptanoate] + CCOS(=O)(=O)[O-].CCn1cc[n+](C)c1
activity coefficient (301.8 K): 29.8 ± 2 | activity coefficient (312.4 K): 28.4 ± 1.9 | activity coefficient (322.9 K): 27.1 ± 1.9 | activity coefficient (333.4 K): 25.5 ± 1.8

CCCCCC(=O)OC [methyl hexanoate] + CCOS(=O)(=O)[O-].CCn1cc[n+](C)c1
activity coefficient (301.7 K): 20.1 ± 1.4 | activity coefficient (312.4 K): 19.2 ± 1.3 | activity coefficient (333.4 K): 17 ± 1.2 | activity coefficient (343.9 K): 15.9 ± 1.1

CCCCC(=O)OC [methyl pentanoate] + CCOS(=O)(=O)[O-].CCn1cc[n+](C)c1
activity coefficient (333.6 K): 11.6 ± 0.79 | activity coefficient (344.1 K): 10.9 ± 0.74 | activity coefficient (354.5 K): 10.2 ± 0.69 | activity coefficient (364.9 K): 9.42 ± 0.64 | activity coefficient (375.4 K): 8.57 ± 0.58 | activity coefficient (385.9 K): 7.75 ± 0.53

CCC(=O)OC [methyl propanoate] + CCOS(=O)(=O)[O-].CCn1cc[n+](C)c1
activity coefficient (322.9 K): 4.73 ± 0.32 | activity coefficient (333.5 K): 4.58 ± 0.31 | activity coefficient (344 K): 4.38 ± 0.3 | activity coefficient (354.5 K): 4.1 ± 0.28 | activity coefficient (364.9 K): 3.86 ± 0.26 | activity coefficient (375.3 K): 3.61 ± 0.25

CCCCCCCCC [nonane] + CCOS(=O)(=O)[O-].CCn1cc[n+](C)c1
activity coefficient (301.8 K): 357 ± 25 | activity coefficient (312.4 K): 304 ± 21 | activity coefficient (322.9 K): 249 ± 17 | activity coefficient (333.5 K): 200 ± 14

CCCCCCCC=O [octanal] + CCOS(=O)(=O)[O-].CCn1cc[n+](C)c1
activity coefficient (303.3 K): 29.8 ± 2 | activity coefficient (312.2 K): 28.3 ± 1.9 | activity coefficient (322.8 K): 27.1 ± 1.9 | activity coefficient (333.3 K): 26.1 ± 1.8 | activity coefficient (343.8 K): 25.5 ± 1.7

CCCCCCCC [octane] + CCOS(=O)(=O)[O-].CCn1cc[n+](C)c1
activity coefficient (301.9 K): 221 ± 15 | activity coefficient (312.5 K): 184 ± 13 | activity coefficient (322.9 K): 148 ± 10 | activity coefficient (333.5 K): 119 ± 8.2

CCCCCO [pentan-1-ol] + CCOS(=O)(=O)[O-].CCn1cc[n+](C)c1
activity coefficient (333.4 K): 2.58 ± 0.18 | activity coefficient (343.9 K): 2.36 ± 0.16 | activity coefficient (354.4 K): 2.22 ± 0.15 | activity coefficient (364.7 K): 2.12 ± 0.14

CCCCC=O [pentanal] + CCOS(=O)(=O)[O-].CCn1cc[n+](C)c1
activity coefficient (333.5 K): 5.19 ± 0.35 | activity coefficient (343.9 K): 5.1 ± 0.35 | activity coefficient (354.4 K): 4.96 ± 0.34 | activity coefficient (364.8 K): 4.82 ± 0.33 | activity coefficient (375.2 K): 4.69 ± 0.32

CCCCCc1ccccc1 [pentylbenzene] + CCOS(=O)(=O)[O-].CCn1cc[n+](C)c1
activity coefficient (354.3 K): 43.5 ± 3 | activity coefficient (364.8 K): 40.3 ± 2.8 | activity coefficient (375.1 K): 38 ± 2.6 | activity coefficient (385.7 K): 35 ± 2.4 | activity coefficient (396.1 K): 32.4 ± 2.2

CCCO [propan-1-ol] + CCOS(=O)(=O)[O-].CCn1cc[n+](C)c1
activity coefficient (322.8 K): 1.23 ± 0.08 | activity coefficient (333.5 K): 1.12 ± 0.07 | activity coefficient (343.9 K): 1.05 ± 0.07 | activity coefficient (364.9 K): 0.91 ± 0.06 | activity coefficient (375.4 K): 0.87 ± 0.06

CC(C)O [propan-2-ol] + CCOS(=O)(=O)[O-].CCn1cc[n+](C)c1
activity coefficient (302.5 K): 1.49 ± 0.1 | activity coefficient (312.2 K): 1.41 ± 0.09 | activity coefficient (322.8 K): 1.29 ± 0.08 | activity coefficient (333.4 K): 1.22 ± 0.08 | activity coefficient (343.9 K): 1.15 ± 0.07

CCC=O [propanal] + CCOS(=O)(=O)[O-].CCn1cc[n+](C)c1
activity coefficient (333.5 K): 1.94 ± 0.13 | activity coefficient (343.9 K): 1.9 ± 0.13 | activity coefficient (354.4 K): 1.84 ± 0.12 | activity coefficient (364.8 K): 1.8 ± 0.12 | activity coefficient (375.2 K): 1.74 ± 0.12

CCCc1ccccc1 [propylbenzene] + CCOS(=O)(=O)[O-].CCn1cc[n+](C)c1
activity coefficient (343.8 K): 16.8 ± 1.1 | activity coefficient (354.3 K): 15.7 ± 1.1 | activity coefficient (364.7 K): 14.9 ± 1 | activity coefficient (375.1 K): 14 ± 0.95 | activity coefficient (385.7 K): 13.2 ± 0.9
